Among the data in publication PMC7206119, “RIP1 inhibition blocks inflammatory diseases but not tumor growth or metastases” (Cell Death and Differentiation, 2019) are remaining binding values, retold here.

Among the targets are SYK (Homo sapiens, UniProt P43405); BRAF (Homo sapiens, UniProt P15056); CAMK2G (Homo sapiens, UniProt Q13555); TTK (Homo sapiens, UniProt P33981); PAK6 (Homo sapiens, UniProt Q9NQU5); RIPK4 (Homo sapiens, UniProt P57078); WEE1 (Homo sapiens, UniProt P30291); CDKL5 (Homo sapiens, UniProt O76039); FLT4 (Homo sapiens, UniProt P35916); NEK3 (Homo sapiens, UniProt P51956); BMX (Homo sapiens, UniProt P51813); MET (Homo sapiens, UniProt P08581); CSF1R (Homo sapiens, UniProt P07333); EPHA4 (Homo sapiens, UniProt P54764); EPHA2 (Homo sapiens, UniProt P29317).

Common to all, as to experiment: biochemical
Holding throughout (parameters): DiscoverX kinase panel, active-site competition binding (KINOMEscan type), percent of control at one concentration
Common to all, as to conditions: competition binding, percent of control

The next test addresses T1, MRCKA (Homo sapiens, UniProt Q5VT25).
T1 construct: gene CDC42BPA

The next test concerns the target T2, JNK2 (Homo sapiens, UniProt P45984).
T2 construct: gene MAPK9

For the next test, the target named is T3, CDC2L5 (Homo sapiens, UniProt Q14004).
T3 construct: gene CDK13

The target in a further test is T4, CDK11 (Homo sapiens, UniProt Q9BWU1).
T4 construct: gene CDK19

A further test concerns the target T5, AMPK-alpha1 (Homo sapiens, UniProt Q13131).
T5 construct: gene PRKAA1

The target of a further test is T6, ARK5 (Homo sapiens, UniProt O60285).
T6 construct: gene NUAK1

The next test addresses T7, PCTK2 (Homo sapiens, UniProt Q00537).
T7 construct: gene CDK17

Chain of BMX (P51813 whole entry): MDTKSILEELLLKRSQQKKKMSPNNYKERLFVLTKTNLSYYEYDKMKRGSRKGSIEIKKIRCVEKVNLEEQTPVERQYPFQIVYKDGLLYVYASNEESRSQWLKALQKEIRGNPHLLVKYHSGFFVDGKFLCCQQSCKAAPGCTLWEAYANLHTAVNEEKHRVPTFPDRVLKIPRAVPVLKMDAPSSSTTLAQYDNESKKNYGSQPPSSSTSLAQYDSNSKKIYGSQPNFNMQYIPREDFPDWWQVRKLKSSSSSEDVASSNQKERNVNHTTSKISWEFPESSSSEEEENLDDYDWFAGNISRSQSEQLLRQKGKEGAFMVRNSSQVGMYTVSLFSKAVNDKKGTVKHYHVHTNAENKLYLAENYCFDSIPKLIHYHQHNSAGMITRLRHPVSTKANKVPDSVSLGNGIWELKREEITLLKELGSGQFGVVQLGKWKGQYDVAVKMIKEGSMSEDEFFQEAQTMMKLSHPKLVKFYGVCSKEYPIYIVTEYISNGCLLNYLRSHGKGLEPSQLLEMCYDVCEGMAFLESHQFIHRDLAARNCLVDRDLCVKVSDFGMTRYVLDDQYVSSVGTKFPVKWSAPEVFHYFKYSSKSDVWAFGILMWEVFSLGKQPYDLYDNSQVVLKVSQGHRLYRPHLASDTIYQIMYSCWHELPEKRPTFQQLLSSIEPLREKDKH
Chain of EPHA4 (P54764 whole entry): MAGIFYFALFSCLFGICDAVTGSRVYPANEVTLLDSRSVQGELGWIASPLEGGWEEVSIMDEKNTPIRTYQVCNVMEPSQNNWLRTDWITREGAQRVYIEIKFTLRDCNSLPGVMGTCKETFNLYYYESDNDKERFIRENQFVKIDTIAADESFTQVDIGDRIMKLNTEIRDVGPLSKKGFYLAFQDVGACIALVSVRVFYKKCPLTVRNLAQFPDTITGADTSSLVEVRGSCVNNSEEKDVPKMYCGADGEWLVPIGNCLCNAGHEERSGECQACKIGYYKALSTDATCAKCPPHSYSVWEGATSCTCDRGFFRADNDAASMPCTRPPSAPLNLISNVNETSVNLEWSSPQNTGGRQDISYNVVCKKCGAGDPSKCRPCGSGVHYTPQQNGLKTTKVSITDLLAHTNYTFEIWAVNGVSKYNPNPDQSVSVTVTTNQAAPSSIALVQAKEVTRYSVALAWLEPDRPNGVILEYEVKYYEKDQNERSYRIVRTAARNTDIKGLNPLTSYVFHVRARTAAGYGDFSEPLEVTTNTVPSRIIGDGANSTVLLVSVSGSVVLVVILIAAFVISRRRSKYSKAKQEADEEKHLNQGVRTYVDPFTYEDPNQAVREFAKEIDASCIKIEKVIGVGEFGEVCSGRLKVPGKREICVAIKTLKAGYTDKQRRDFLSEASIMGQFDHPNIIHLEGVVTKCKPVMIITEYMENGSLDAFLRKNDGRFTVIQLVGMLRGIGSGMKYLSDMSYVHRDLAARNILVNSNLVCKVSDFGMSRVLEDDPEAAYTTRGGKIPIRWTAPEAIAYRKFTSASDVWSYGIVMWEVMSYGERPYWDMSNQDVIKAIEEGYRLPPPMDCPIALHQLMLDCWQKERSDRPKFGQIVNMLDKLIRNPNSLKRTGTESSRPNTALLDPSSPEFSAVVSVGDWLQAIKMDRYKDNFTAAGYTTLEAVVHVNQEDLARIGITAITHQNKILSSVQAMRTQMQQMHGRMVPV
Chain of CDKL5 (O76039 whole entry): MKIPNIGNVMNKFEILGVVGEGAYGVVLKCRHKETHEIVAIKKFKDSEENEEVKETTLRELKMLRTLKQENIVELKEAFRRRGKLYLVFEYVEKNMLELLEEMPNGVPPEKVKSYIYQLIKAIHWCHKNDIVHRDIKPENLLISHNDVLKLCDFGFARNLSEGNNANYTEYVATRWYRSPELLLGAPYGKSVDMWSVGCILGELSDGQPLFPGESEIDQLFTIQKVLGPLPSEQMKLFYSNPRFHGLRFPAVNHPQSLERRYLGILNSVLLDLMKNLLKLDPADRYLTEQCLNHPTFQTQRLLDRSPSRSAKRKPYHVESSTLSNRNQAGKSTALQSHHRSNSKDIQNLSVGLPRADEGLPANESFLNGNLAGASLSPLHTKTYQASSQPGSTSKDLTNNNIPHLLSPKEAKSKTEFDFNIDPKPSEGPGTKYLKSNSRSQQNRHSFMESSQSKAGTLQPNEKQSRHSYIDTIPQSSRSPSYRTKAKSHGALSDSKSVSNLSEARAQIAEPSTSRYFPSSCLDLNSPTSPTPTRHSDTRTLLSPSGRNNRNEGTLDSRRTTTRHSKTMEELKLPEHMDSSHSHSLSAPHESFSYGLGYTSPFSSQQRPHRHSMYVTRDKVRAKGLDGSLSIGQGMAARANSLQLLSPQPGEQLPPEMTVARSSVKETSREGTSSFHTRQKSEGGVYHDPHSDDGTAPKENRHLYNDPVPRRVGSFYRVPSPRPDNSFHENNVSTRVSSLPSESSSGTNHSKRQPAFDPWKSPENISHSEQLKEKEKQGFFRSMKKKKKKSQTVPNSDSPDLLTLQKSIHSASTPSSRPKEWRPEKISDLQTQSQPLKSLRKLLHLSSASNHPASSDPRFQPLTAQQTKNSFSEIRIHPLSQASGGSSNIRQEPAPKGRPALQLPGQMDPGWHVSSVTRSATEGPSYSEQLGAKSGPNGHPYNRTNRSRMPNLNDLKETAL
Chain of PAK6 (Q9NQU5 whole entry): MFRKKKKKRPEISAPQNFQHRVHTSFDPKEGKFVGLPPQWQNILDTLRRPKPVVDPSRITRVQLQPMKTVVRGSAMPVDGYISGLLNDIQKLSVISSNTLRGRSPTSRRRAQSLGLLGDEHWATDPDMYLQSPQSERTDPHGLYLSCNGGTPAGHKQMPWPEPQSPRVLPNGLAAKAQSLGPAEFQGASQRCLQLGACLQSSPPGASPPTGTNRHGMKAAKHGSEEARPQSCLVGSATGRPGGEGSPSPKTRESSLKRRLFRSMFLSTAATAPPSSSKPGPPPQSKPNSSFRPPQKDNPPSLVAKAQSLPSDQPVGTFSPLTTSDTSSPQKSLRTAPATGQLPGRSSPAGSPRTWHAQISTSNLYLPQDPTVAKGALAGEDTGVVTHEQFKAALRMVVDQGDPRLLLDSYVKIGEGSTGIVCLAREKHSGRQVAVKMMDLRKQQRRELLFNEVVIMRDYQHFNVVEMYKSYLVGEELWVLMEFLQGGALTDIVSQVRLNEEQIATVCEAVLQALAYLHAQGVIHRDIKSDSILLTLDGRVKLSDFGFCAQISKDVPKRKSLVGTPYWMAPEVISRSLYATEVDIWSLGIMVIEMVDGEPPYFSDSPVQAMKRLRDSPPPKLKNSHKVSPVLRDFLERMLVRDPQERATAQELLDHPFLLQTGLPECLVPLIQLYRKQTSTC
Chain of TTK (P33981 whole entry): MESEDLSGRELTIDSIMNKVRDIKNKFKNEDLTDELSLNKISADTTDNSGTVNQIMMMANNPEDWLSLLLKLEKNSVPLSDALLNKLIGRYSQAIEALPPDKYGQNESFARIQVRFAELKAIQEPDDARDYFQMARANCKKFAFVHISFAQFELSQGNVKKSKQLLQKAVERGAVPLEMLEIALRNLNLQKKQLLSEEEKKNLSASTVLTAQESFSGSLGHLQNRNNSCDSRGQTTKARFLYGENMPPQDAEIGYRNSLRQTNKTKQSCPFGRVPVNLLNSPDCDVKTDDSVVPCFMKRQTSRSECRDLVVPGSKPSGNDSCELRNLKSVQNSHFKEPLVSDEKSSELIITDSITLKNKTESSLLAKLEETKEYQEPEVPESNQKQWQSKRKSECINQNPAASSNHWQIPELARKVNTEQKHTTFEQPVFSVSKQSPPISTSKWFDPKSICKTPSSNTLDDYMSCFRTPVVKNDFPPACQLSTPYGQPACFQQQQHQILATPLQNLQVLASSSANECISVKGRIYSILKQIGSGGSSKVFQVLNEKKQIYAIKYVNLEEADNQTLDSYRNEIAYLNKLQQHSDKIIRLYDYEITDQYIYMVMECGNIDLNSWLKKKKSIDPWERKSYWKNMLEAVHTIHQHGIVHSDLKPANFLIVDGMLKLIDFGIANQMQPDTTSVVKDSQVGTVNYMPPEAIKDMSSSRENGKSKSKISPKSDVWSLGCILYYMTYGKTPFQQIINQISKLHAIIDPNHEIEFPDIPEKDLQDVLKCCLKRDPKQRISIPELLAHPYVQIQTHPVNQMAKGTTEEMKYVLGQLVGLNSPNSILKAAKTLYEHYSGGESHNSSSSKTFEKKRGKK
Chain of CAMK2G (Q13555 whole entry): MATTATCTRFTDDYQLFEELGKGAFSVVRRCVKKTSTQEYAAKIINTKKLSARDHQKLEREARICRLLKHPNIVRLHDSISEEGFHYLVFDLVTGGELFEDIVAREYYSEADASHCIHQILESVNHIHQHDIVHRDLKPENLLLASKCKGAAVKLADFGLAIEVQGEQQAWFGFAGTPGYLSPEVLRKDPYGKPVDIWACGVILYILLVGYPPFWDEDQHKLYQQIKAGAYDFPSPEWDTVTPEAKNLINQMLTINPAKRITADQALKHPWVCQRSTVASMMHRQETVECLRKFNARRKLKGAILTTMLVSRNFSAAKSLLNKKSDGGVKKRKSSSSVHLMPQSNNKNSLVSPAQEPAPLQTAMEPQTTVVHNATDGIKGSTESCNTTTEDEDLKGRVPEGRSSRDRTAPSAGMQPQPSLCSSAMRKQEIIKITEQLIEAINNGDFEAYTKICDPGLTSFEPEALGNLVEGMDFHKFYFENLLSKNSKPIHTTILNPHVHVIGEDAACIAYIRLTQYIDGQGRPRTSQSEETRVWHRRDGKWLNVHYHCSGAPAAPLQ

For `COc1cc2c(cn1)N(C)C(=O)[C@@H](NC(=O)c1nc3n(n1)[C@H](c1ccccc1)CC3)CC2` [GNE684, (S)-N-((S)-7-methoxy-1-methyl-2-oxo-2,3,4,5-tetrahydro-1H-pyrido[3,4-b]azepin-3-yl)-5-phenyl-6,7-dihydro-5H-pyrrolo[1,2-b][1,2,4]triazole-2-carboxamide], the remaining binding at 10 µM was found to be 75% on SYK; 98% at BRAF; 100% on CAMK2G; 100% on TTK; 100% at MRCKA; 98% at JNK2. For the same compound, the remaining binding at 10 µM amounted to 100% on PAK6; 100% on CDC2L5; 100% on RIPK4; 69% at WEE1; 79% on CDKL5; 96% at FLT4. In addition, the remaining binding at 10 µM on CDK11 stood at 81%; at NEK3 it was 94%; at AMPK-alpha1, 97%; at BMX, 94%; at ARK5, 94%; on MET, 73%. The remaining binding at 10 µM came out at 100% at PCTK2, 100% on CSF1R, 94% at EPHA4 and 97% on EPHA2.
